# Earlier results in patent publication US20050281896A1, “Nutritional composition for increasing creatine uptake in skeletal muscle” (priority 2004, published 2005).
# Columns and labels:
# [1] = target: angiotensin converting enzyme (ACE) (Homo sapiens, UniProt P12821)
# [2] = in vivo
# Sequence of angiotensin converting enzyme (ACE) (P12821 30-1306, species assumed): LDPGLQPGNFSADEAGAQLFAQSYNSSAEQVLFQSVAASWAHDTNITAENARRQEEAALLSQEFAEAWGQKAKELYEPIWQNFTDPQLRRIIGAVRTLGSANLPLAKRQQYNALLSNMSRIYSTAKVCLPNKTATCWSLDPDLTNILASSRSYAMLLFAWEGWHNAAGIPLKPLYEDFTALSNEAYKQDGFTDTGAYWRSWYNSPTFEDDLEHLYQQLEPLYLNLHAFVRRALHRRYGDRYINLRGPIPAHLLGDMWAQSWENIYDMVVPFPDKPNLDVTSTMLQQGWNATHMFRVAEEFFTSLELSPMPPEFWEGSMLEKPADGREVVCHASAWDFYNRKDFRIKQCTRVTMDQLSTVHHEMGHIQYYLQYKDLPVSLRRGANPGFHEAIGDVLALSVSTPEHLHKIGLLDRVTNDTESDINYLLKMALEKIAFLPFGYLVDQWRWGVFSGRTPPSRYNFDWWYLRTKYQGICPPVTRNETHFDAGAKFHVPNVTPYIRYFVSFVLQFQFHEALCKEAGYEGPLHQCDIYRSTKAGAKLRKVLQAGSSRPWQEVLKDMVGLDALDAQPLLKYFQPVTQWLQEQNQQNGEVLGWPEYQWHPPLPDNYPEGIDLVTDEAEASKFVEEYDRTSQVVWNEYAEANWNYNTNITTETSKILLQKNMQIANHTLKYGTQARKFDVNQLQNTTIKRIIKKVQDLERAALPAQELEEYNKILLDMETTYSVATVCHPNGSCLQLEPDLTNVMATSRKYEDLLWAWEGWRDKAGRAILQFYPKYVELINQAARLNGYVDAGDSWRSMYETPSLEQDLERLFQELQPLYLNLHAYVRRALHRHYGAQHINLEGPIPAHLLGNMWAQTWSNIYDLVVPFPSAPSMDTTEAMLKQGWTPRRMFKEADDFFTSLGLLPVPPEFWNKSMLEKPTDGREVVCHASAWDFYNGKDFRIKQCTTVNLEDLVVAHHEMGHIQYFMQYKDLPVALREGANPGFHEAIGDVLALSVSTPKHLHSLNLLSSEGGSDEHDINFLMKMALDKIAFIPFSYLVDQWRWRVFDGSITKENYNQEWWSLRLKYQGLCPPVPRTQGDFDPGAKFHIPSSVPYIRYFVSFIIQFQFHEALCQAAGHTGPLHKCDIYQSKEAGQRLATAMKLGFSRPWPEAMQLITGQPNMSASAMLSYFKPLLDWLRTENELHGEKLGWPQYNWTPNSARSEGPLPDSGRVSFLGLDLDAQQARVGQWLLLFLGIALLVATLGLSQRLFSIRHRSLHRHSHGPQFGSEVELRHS
SMILES,increase of the metabolic clearance rate of glucose (diabetics) [%],body's utilization of blood sugar (type II diabetics),effect on angiotensin converting enzyme (ACE) [1],effect on blood pressure [2]
"O=C(O)CCCC[C@@H]1CCSS1 (stereo in doubt) [alpha lipoic acid, 1,2-dithiolane-3-pentanoic acid]",50,significantly increase,–,–
"O=C(/C=C/c1ccc(O)c(O)c1)c1ccc(O)cc1O [butein, 3,4,2′,4′-tetrahydroxychalcone]",–,–,inhibition,hypotensive effects
